In ChEMBL document CHEMBL1156043, “Selective inactivation of triosephosphate isomerase from Trypanosoma cruzi by brevifolin carboxylate derivatives isolated from Geranium bellum Rose” (Bioorg Med Chem Lett, 2009):

What was measured:
[1] = target: T1, Triosephosphate isomerase, glycosomal (Trypanosoma cruzi, UniProt P52270); assay: Inhibition of Trypanosoma cruzi recombinant triosephosphate isomerase after 2 hrs; details: read-out: I50
[2] = target: Triosephosphate isomerase (Homo sapiens, UniProt P60174); assay: Inhibition of human recombinant triosephosphate isomerase after 2 hrs; details: read-out: I50
Triosephosphate isomerase, sequence (P60174 whole entry): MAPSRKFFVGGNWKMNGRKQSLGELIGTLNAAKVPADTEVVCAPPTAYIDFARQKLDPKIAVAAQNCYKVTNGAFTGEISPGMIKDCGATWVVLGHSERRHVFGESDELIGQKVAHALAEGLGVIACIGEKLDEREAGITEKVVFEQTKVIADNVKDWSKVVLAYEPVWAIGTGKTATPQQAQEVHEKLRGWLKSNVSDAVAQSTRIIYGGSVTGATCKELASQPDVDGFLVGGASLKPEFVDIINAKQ

[3] = target: T1, Triosephosphate isomerase, glycosomal; assay: Binding affinity to Trypanosoma cruzi recombinant triosephosphate isomerase; details: read-out: Kd(app)

T1 sequence (P52270 whole entry): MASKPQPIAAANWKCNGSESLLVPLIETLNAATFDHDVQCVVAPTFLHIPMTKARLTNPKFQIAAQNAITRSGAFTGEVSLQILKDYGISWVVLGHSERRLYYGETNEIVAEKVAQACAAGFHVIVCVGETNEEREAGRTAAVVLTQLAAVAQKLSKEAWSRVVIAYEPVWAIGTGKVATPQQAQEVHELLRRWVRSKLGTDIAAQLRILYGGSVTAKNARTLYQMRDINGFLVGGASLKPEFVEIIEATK

SMILES	IC50 [1] [µM]	IC50 [2] [µM]	Kd [3] [µM]
COC(=O)C1CC(=O)c2oc(=O)c3cc(OC)c(OC)c(OC)c3c21 (centres undefined)	> 1000	> 1000	
CCCCOC(=O)C1CC(=O)c2oc(=O)c3cc(O)c(O)c(O)c3c21 (centres undefined) [BUTYLBREVIFOLIN CARBOXYLATE]	14	> 1000	
CCOC(=O)C1CC(=O)c2oc(=O)c3cc(O)c(O)c(O)c3c21 (centres undefined) [ETHYLBREVIFOLIN CARBOXYLATE]	8	> 1000	
COC(=O)C1CC(=O)c2oc(=O)c3cc(O)c(O)c(O)c3c21 (centres undefined) [METHYLBREVIFOLIN CARBOXYLATE]	6.5	> 1000	10.4
